Experimental findings from EP4786467A1, “QUINOLINONE COMPOUND, PREPARATION METHOD THEREFOR AND USE THEREOF” (Vigonvita Life Sciences Co., Ltd., priority 2023, dated 2025) are described below.

The target of data set [1] is T1, recombinant human 5-HT1A receptor (Homo sapiens, UniProt P08908).
T1 construct: expressed in transfected cells
T1 sequence (P08908 1-422): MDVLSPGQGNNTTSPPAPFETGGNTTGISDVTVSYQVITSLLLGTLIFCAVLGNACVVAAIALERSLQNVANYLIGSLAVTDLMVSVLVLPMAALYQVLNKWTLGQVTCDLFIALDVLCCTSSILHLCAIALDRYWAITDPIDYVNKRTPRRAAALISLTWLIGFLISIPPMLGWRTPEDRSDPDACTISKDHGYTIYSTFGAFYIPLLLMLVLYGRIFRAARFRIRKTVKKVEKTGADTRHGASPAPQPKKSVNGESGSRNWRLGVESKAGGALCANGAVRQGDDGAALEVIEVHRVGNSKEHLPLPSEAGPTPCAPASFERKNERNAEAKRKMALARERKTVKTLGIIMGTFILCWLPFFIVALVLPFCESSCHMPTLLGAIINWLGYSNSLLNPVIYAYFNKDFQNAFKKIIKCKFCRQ
Put plainly: 5-HT1A Receptor Agonist Activity Assay (LANCE cAMP, inhibition of cAMP production). In kind it is cell-based. The conditions noted are these: CHO-K1 cells expressing the recombinant human 5-HT1A receptor, read-out: 5-HT1A agonistic activity (EC50). As to the method:
The agonistic effect of the compounds on the 5-HT1A receptor was evaluated by testing their inhibitory effect on cAMP production in CHO-K1 cells. 8-OH-DPAT was used as a positive control. The specific procedures were as follows: a) The compounds (test compounds and positive control) were prepared to a stock concentration of 10 mM using DMSO, and Forskolin was prepared to a stock concentration of 10 mM. The initial test concentration of 8-OH-DPAT was 1 µM, diluted 3X. The initial test concentration of the test compounds was 0.1 µM, diluted 3X, and each concentration was repeated twice. 100 nL of the compounds and 10 nL of Forskolin were transferred to the test plate using an Echo, with a final DMSO concentration <1%. b) The stable 5-HT1A cell line was taken out from the incubator to observe the cell status. When the cell density reached 80%-90%, the culture medium was discarded and the cells were washed with 5 mL of DPBS. After discarding DPBS, 2 mL of trypsin was added, and the cells were incubated at 37 °C for 2-5 min. After adding 10 mL of complete culture medium, the cells were collected, which was centrifuged at 1000 rpm for 4 min, and the supernatant was discarded. […]
For orientation: Time-resolved FRET reads energy transfer from a long-lived donor to a nearby acceptor.

The next data set has as its target T2, human SERT (Homo sapiens, UniProt P31645).
T2 construct: expressed in transfected cells; host or cells: HEK-293 (HEK-hSERT cells)
Put plainly: 5-HT Transporter Inhibitory Activity Assay (Neurotransmitter transporter uptake assay kit). In kind it is cell-based. The following applies: HEK-293 cells expressing human SERT. As for the experimental part: The inhibitory effect of the compounds on the 5-HT transporter in HEK-293 cells expressing human SERT was tested using the Neurotransmitter transporter uptake assay kit (Molecular Devices product). The test was performed according to the kit instructions, using citalopram as a positive control. The specific procedure was as follows: a) HEK-hSERT cells were seeded at 20,000 cells/well in a 384-well plate and then incubated overnight at 37°C in an incubator. b) The following day, the compounds (test compounds and positive control) were diluted using DMSO from 20 mM DMSO solution to the working concentration. Each test compound and citalopram were transferred to a 384-well plate using a detection buffer containing 0.1% BSA. The initial test concentration of citalopram was 1 µM, diluted 3X. The initial test concentration of the test compounds was 10 µM, diluted 4X, with each concentration repeated twice. c) The cell culture 384-well plate was taken out from the incubator, the culture medium was aspirated from the wells, and 25 µL of the test compound solution was added per well. The cells were incubated at 37°C for 30 min. After incubation, 25 µL of a dye solution was added to each well and the cells were incubated at 37°C for 30 min. d) the fluorescence values were read on a Flexstation 3 and the data were analyzed using Graphpad Prism.

Data set [2] in a line: Rat Pharmacokinetic Experiment. In kind it is in vivo, male SD rats. The following applies: for AUC(0-t) / Cmax: rat plasma, oral (po) dose 3 mg/kg; for bioavailability: rat, iv 1 mg/kg, po 3 mg/kg. As to the method:
The compound of Example 2 was used in a pharmacokinetic experiment in rats (non-fasted male SD rats). The compound of the present invention was dissolved in a solvent (0.5% CMC-Na). The intravenous (iv) dose was 1 mg/kg, with an administration volume of 5 ml/kg; the oral (po) dose was 3 mg/kg, with an administration volume of 10 mL/kg body weight. Approximately 0.3 mL of blood samples were collected from the jugular vein of rats at the following time points: 0.083, 0.25, 0.5, 1, 2, 4, 6, 8, and 24 h (n=3 at each time point). The collected blood was stored under ice-cooling conditions. Plasma was rapidly separated by centrifugation, and a precipitant was added. The concentration of the test compound was quantified using LC-MS.

Data set [3] in a line: Mouse Pharmacokinetic Experiment (plasma and brain). In kind it is in vivo, Male ICR mice. The conditions noted are these: for Cmax / AUC(0-t): oral (po) dose 1 mg/kg; for bioavailability: mouse, iv 0.3 mg/kg, po 1 mg/kg. As for the experimental part: Animal: Male ICR mice. Animals were randomly assigned to the treatment group and fasted for 12 hours before administration.
Drug to be tested: The compounds were dissolved in solvent (0.5% CMC-Na). The intravenous (iv) dose was 0.3 mg/kg, with an administration volume of 5 ml/kg; the oral (po) dose was 1 mg/kg, with an administration volume of 10 mL/kg body weight.
Sample Collection and Bioanalysis: After administration, blood was collected from the orbital sinus of mice at 0.083, 0.25, 0.5, 1, 2, 4, 6, 8, and 24 hours (n=3 at each time point) and placed in EP tubes containing heparin sodium. Mice were euthanized immediately via vertebral dislocation after blood collection, and their brains were harvested at the corresponding time points. All samples were collected immediately, rapidly frozen, and stored at -70°C for later use.
Plasma samples were obtained by whole blood centrifugation. 10 µL of plasma was then mixed with 190 µL of internal standard solution (20 ng/mL metoprazor in acetonitrile containing 0.1% formic acid). After mixing, the mixture was centrifuged at 13000 rpm for 10 min. For each sample, 120 µL of the supernatant was collected, and 0.5-10 µL (depending on the sensitivity of the compound) was then taken for drug analysis using an appropriate liquid chromatography-tandem mass spectrometry (LC-MS/MS) method. Standards for each analyte were used for calibration and identification.
The brain tissue and extract were homogenized at a brain tissue:extract (50% acetonitrile-water) ratio = 1 (g): 8 (ml) using 5 3mm-magnetic beads in an OMNI Bead Ruptor 24 Elite homogenizer at 3.2 m/s for 2 min. The mixture was centrifuged at 4°C, 3000g for 3 min. 50 µL of supernatant was collected and added with 200 µL of internal standard solution (20 ng/mL dissolved in 80% acetonitrile-water). After mixing well, the mixture was centrifuged at 13000 rpm for 10 min. 120 µL of supernatant was collected for each sample. Then, 0.5-10 µL of the supernatant (depending on the sensitivity of the compound) was taken and analyzed using an appropriate LC-MS/MS method. Standards for each analyte were used for calibration and identification.
Data Analysis: Drug concentrations below the limit of quantitation (LLOQ) were recorded as zero. Pharmacokinetic data analysis was performed in PK Solver using non-compartmental, bolus intravenous injection, or extravascular administration analysis model. Data points below LLOQ were excluded from the analysis to improve the validity of t1/2 calculation.

The structures appear in SMILES notation.

One may read the EC50 as the concentration at which the effect is half-maximal. Broadly, the IC50 is the concentration that inhibits the measured activity by half. Read a low IC50 as greater potency. By AUC(0-t) is commonly meant the area under the concentration-time curve up to a stated or last time point. A high value points to high exposure. What is called Cmax is the highest concentration seen after dosing. A word on the bioavailability: it is the share of a dose that reaches the circulation, judged against a reference dose that is usually intravenous. Higher therefore signals good availability.

T2 sequence (P31645 whole entry): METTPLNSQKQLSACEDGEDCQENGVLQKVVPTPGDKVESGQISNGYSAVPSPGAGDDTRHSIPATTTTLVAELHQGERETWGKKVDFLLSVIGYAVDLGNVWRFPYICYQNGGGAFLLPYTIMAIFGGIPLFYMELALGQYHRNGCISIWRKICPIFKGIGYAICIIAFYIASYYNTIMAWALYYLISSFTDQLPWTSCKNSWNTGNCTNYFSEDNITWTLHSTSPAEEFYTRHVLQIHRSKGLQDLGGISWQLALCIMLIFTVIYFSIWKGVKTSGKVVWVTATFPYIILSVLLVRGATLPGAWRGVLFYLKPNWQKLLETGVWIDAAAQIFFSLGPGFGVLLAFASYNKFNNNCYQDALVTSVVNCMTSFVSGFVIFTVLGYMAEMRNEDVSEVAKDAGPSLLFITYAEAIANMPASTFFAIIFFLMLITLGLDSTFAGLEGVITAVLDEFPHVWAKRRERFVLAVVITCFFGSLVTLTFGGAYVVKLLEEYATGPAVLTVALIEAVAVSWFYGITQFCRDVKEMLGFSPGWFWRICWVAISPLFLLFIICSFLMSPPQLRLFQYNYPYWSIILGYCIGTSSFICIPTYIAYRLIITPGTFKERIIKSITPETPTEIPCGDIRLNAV

In the case of `O=C1CCc2ccc(CCN3CCN(c4cc(F)cc5c4OCC5)CC3)cc2N1` [Example 5, 7-(2-(4-(5-fluoro-2,3-dihydrobenzofuran-7-yl)piperazin-1-yl)ethyl)-3,4-dihydroquinolin-2(1H)-one], in data set [1], the concentration for a half-maximal effect (EC50) was 1.5 nM. This molecule also yielded an IC50 at human SERT of 13 nM.
As to `O=C1CCc2ccc(CCN3CCN(c4cc(F)cc5c4CCO5)CC3)cc2N1` [Example 2, 7-(2-(4-(6-fluoro-2,3-dihydrobenzofuran-4-yl)piperazin-1-yl)ethyl)-3,4-dihydroquinolin-2(1H)-one], the AUC(0-t) worked out at 5320 ng·h/mL in data set [2] (in vivo) and 794 ng·h/mL in data set [3] (in vivo, mouse plasma). Moreover, the Cmax came out at 815 ng/mL in data set [2] (in vivo); 413 ng/g in data set [3] (in vivo, mouse brain tissue); 72.8 ng/mL in data set [3] (in vivo, mouse plasma). Further, the bioavailability in data set [2] (in vivo) worked out at 100%; in data set [3] (in vivo) it was 77%.
In turn, `[2H]C1([2H])C(=O)Nc2cc(CCN3CCN(c4cc(F)cc5occc45)CC3)ccc2C1([2H])[2H]` [Example 43, 7-(2-(4-(6-fluorobenzofuran-4-yl)piperazin-1-yl)ethyl)-3,4-dihydroquinolin-2(1H)-one-3,3,4,4-d4] registered an IC50 at human SERT of 7.4 nM.
In the case of `O=C1CCc2ccc(CCN3CCN(c4cc(F)cc5ccsc45)CC3)cc2N1` [Example 15, 7-(2-(4-(5-fluorobenzo[b]thiophene-7-yl)piperazin-1-yl)ethyl)-3,4-dihydroquinolin-2(1H)-one], the EC50 in data set [1] amounted to 0.5 nM. Moreover, the concentration for half-maximal inhibition (IC50) on human SERT worked out at 26 nM.
With `[2H]C1([2H])CC(=O)Nc2cc(CCN3CCN(c4cc(F)cc5occc45)CC3)ccc21` [Example 41, 7-(2-(4-(6-fluorobenzofuran-4-yl)piperazin-1-yl)ethyl)-3,4-dihydroquinolin-2(1H)-one-4,4-d2], in data set [1], the EC50 came to 0.7 nM.
On human SERT, `O=c1ccc2ccc(CCN3CCN(c4cc(F)cc5c4CCO5)CC3)cc2[nH]1` [Example 7, 7-(2-(4-(6-fluoro-2,3-dihydrobenzofuran-4-yl)piperazin-1-yl)ethyl)quinolin-2(1H)-one] gave an IC50 of 9 nM.
At human SERT, `O=C1CCc2ccc(CCN3CCN(c4cc(F)cc5c4OCO5)CC3)cc2N1` [Example 39, 7-(2-(4-(6-fluorobenzo[d][1,3]dioxol-4-yl)piperazin-1-yl)ethyl)-3,4-dihydroquinolin-2(1H)-one] registered an IC50 of 10.6 nM.
On to `O=C1CCc2ccc(CCN3CCN(c4ccc(F)c5sccc45)CC3)cc2N1` [Example 12, 7-(2-(4-(7-fluorobenzo[b]thiophene-4-yl)piperazin-1-yl)ethyl)-3,4-dihydroquinolin-2(1H)-one], for which the EC50 in data set [1] stood at 0.8 nM.
Regarding `O=C1CCc2ccc(CCN3CCN(c4cc(F)cc5sccc45)CC3)cc2N1` [Reference compound, 7-(2-(4-(6-fluorobenzo[b]thiophene-4-yl)piperazin-1-yl)ethyl)-3,4-dihydroquinolin-2(1H)-one, reference compound], the bioavailability in data set [2] (male, SD, plasma) is 43%; in data set [3] (male, ICR, plasma) it was 50%. In addition, the AUC(0-t) in data set [2] (male, SD) amounted to 1560 ng·h/mL; in data set [3] (male, ICR, mouse plasma), 468 ng·h/mL. Also, the Cmax in data set [2] (male, SD) worked out at 280 ng/mL; in data set [3] (male, ICR, mouse brain tissue), 254 ng/g; in data set [3] (male, ICR, mouse plasma), 27.5 ng/mL. For the same molecule, the EC50 in data set [1] came out at 1 nM. This molecule gave an IC50 on human SERT of 15 nM.
With `O=C1CCc2ccc(CCN3CCN(c4cc(F)cc5ccoc45)CC3)cc2N1` [Example 6, 7-(2-(4-(5-fluorobenzofuran-7-yl)piperazin-1-yl)ethyl)-3,4-dihydroquinolin-2(1H)-one], inhibition against human SERT was half-maximal at 12 nM (IC50).
On to `O=c1ccc2ccc(CCN3CCN(c4cc(F)cc5ccoc45)CC3)cc2[nH]1` [Example 3, 7-(2-(4-(5-fluorobenzofuran-7-yl)piperazin-1-yl)ethyl)quinolin-2(1H)-one], for which, in data set [1], the EC50 stood at 1.3 nM.
With `O=C1CCc2ccc(CCN3CCN(c4c(F)ccc5ccsc45)CC3)cc2N1` [Example 14, 7-(2-(4-(6-fluorobenzo[b]thiophene-7-yl)piperazin-1-yl)ethyl)-3,4-dihydroquinolin-2(1H)-one], the EC50 in data set [1] was 1 nM.
On to `[2H]C1([2H])Cc2ccc(CCN3CCN(c4cc(F)cc5c4CCO5)CC3)cc2NC1=O` [Example 22, 7-(2-(4-(6-fluoro-2,3-dihydrobenzofuran-4-yl)piperazin-1-yl)ethyl)-3,4-dihydroquinolin-2(1H)-one-3,3-d2], for which, on human SERT, it took 12.4 nM to reach half-maximal inhibition (IC50).
As to `O=C1CCc2ccc(CCN3CCN(c4cc(F)cc5occc45)CC3)cc2N1` [Example 1, 7-(2-(4-(6-fluorobenzofuran-4-yl)piperazin-1-yl)ethyl)-3,4-dihydroquinolin-2(1H)-one], in data set [3] (male, ICR, plasma), the bioavailability worked out at 100%. Moreover, the Cmax in data set [3] (male, ICR, mouse brain tissue) came out at 368 ng/g. In data set [3] (male, ICR, mouse plasma), this molecule gave an AUC(0-t) of 1170 ng·h/mL and a Cmax of 68.4 ng/mL. For the same molecule, the EC50 in data set [1] was determined as 0.5 nM. The IC50 against human SERT was found to be 7.8 nM.
As to `O=c1ccc2ccc(CCN3CCN(c4cc(F)cc5ccsc45)CC3)cc2[nH]1` [Example 16, 7-(2-(4-(5-fluorobenzo[b]thiophene-7-yl)piperazin-1-yl)ethyl)quinolin-2(1H)-one], in data set [1], the EC50 was 0.5 nM.
